In patent US9328374B2, “Selective culture medium and method for detecting carbapenem-resistant bacteria in a test sample” (Institut National de la Sante et de la Recherche Medicale …, priority 2011, dated 2016):

Test system: K. pneumoniae
Assay: MIC of imipenem, ertapenem and meropenem
Format: cell-based, Klebsiella pneumoniae

Structure (SMILES): C[C@@H](O)[C@H]1C(=O)N2C(C(=O)O)=C(S[C@@H]3CN[C@H](C(=O)N(C)C)C3)[C@H](C)[C@H]12 [MEM, meropenem]
- MIC (K. pneumoniae HPA, OXA-48 + TEM-1 + CTX-M-15 + OXA-1): 12 µg/mL
- MIC (K. pneumoniae IND (NDM-1 + OXA-1 + CTX-M-15)): 4 µg/mL
- MIC (K. pneumoniae KAM, KPC-3 + TEM-1 + SHV-11): 2 µg/mL
- MIC (K. pneumoniae KDH (DHA-2)): 0.12 µg/mL
- MIC (K. pneumoniae KDH, DHA-2, non-carbapenemase producer, overexpressed AmpC): 0.12 µg/mL
- MIC (K. pneumoniae KI2, NDM-1 + CTX-M-15 + OXA-1): 4 µg/mL
- MIC (K. pneumoniae KIE, NDM-1 + SHV-38 + CMY-16 + OXA-10): 1 µg/mL
- MIC (K. pneumoniae KPN (CTX-M-15)): 0.12 µg/mL
- MIC (K. pneumoniae KPN, CTX-M-15, non-carbapenemase producer): 0.012 µg/mL
- MIC (K. pneumoniae LEG (CTX-M-15 + TEM-1 + SHV-12)): 3 µg/mL
- MIC (K. pneumoniae LEG, CTX-M-15 + TEM-1 + SHV-12, non-carbapenemase producer, porin deficiency): 3 µg/mL
- MIC (K. pneumoniae LIB (OXA-48)): >32 µg/mL
- MIC (K. pneumoniae LIB, OXA-48): 16 µg/mL
- MIC (K. pneumoniae LIE, KPC-2 + TEM-2 + OXA-9): >32 µg/mL
- MIC (K. pneumoniae LOU, OXA-48): 0.5 µg/mL
- MIC (K. pneumoniae MAD (VIM-1 + CTX-M-3)): 1 µg/mL
- MIC (K. pneumoniae MAD, VIM-1+ CTX-M-3): 1 µg/mL
- MIC (K. pneumoniae MEK (CTX-M-15 + SHV-11)): 6 µg/mL
- MIC (K. pneumoniae MEK, CTX-M-15 + SHV-11, non-carbapenemase producer, porin deficiency): 6 µg/mL
- MIC (K. pneumoniae MUS (KPC-2 + TEM-1 + SHV-11 + SHV-12)): 1.5 µg/mL
- MIC (K. pneumoniae MUS, KPC-2 + TEM-1 + SHV-11 + SHV-12): 1.5 µg/mL
- MIC (K. pneumoniae OM2 (NDM-1 + TEM-1 + CTX-M-3 + SHV-11 + OXA-1)): 1.5 µg/mL
- MIC (K. pneumoniae OM2, NDM-1 + TEM-1 + CTX-M-3 + SHV-11 + OXA-1): 1.5 µg/mL
- MIC (K. pneumoniae OM4, NDM-1 + TEM-1 + CTX-M-15 + SHV-12 + OXA-9): 16 µg/mL
- MIC (K. pneumoniae OM8, NDM-1 + TEM-1 + CTX-M-15 + SHV-11 + OXA-1): 4 µg/mL
- MIC (K. pneumoniae OM11, OXA-48 + TEM-1 + CTX-M-14): 0.25 µg/mL
- MIC (K. pneumoniae OM13, NDM-1 + TEM-1 + CTX-M-15 + SHV-28 + OXA-1 + OXA-9): 2 µg/mL
- MIC (K. pneumoniae OM14, OXA-48 + TEM-1): 0.38 µg/mL
- MIC (K. pneumoniae OM15, NDM-1 + CTX-M-15 + SHV-130 + OXA-1): 3 µg/mL
- MIC (K. pneumoniae OM16, NDM-1 + CTX-M-15 + OXA-1 + OXA-181): 16 µg/mL
- MIC (K. pneumoniae OM19, NDM-1 + CTX-M-15 + SHV-12 + OXA-1): 8 µg/mL
- MIC (K. pneumoniae OMA419 (NDM-1 + OXA-1)): 2 µg/mL
- MIC (K. pneumoniae OMA419, NDM-1 + OXA-1): 2 µg/mL
- MIC (K. pneumoniae OMA601, NDM-1 + CTX-M-15 + OXA-1 + OXA-9): >32 µg/mL
- MIC (K. pneumoniae OMA (OXA-181 + CTX-M-15 + OXA-1)): 0.5 µg/mL
- MIC (K. pneumoniae OMA, OXA-181 + CTXM-15 + OXA-1): 0.5 µg/mL
- MIC (K. pneumoniae RAM (OXA-48)): 1 µg/mL
- MIC (K. pneumoniae RAM, OXA-48): 1 µg/mL
- MIC (K. pneumoniae ROB (OXA-48 + CTX-M-15 + TEM-1)): 0.5 µg/mL
- MIC (K. pneumoniae ROU (OXA-48 + CTX-M-15)): 0.25 µg/mL
- MIC (K. pneumoniae ROU, OXA-48 + CTX-M-15): 0.25 µg/mL
- MIC (K. pneumoniae SCO (OXA-48)): 0.25 µg/mL
- MIC (K. pneumoniae SCO, OXA-48): 0.25 µg/mL
- MIC (K. pneumoniae SHI (CTX-M-15 + TEM-1 + SHV-1)): 1 µg/mL
- MIC (K. pneumoniae SHI, CTX-M-15 + TEM-1 + SHV-11, non-carbapenemase producer, porin deficiency): 1 µg/mL
- MIC (K. pneumoniae SHM (CTX-M-15 + TEM-1 + SHV-11)): 1 µg/mL
- MIC (K. pneumoniae SHM, CTX-M-15 + TEM-1 + SHV-11, non-carbapenemase producer, porin deficiency): 3 µg/mL
- MIC (K. pneumoniae SIC (OXA-48 + CTX-M-15 + SHV-28)): 0.25 µg/mL
- MIC (K. pneumoniae SIC, OXA-48 + CTX-M-15 + SHV-28): 0.25 µg/mL
- MIC (K. pneumoniae SIM (CTX-M-15 + TEM-1 + SHV-1)): 6 µg/mL
- MIC (K. pneumoniae SIM, CTX-M-15 + TEM-1 + SHV-1, non-carbapenemase producer, porin deficiency): 6 µg/mL
- MIC (K. pneumoniae TAW, IMP-8 + SHV-12): 0.5 µg/mL
- MIC (K. pneumoniae TIK, OXA-48): 0.38 µg/mL
- MIC (K. pneumoniae TUR (IMP-1)): 8 µg/mL
- MIC (K. pneumoniae TUR, IMP-1): 8 µg/mL
- MIC (K. pneumoniae TWA, IMP-8): 0.5 µg/mL
- MIC (K. pneumoniae UK (NDM-1 + CTX-M-15 + CMY-4 + OXA-1)): >32 µg/mL
- MIC (K. pneumoniae UK, NDM-1 + CTX-M-15 + CMY-4 + OXA-1): >32 µg/mL
- MIC (K. pneumoniae VER, OXA-48 + TEM-1 + CTX-M-15 + SHV-11): 0.38 µg/mL
- MIC (K. pneumoniae VSG (OXA-48 + TEM-1 + CTX-M-15 + OXA-1)): 0.75 µg/mL
- MIC (K. pneumoniae VSG, OXA-48 + TEM-1 + CTX-M-15 + OXA-1): 0.75 µg/mL
- MIC (K. pneumoniae YC, KPC-2 + TEM-1 + SHV-11 + SHV-12 + OXA-9): 2 µg/mL
- MIC (strain K. pneumoniae 7725, SHV-1, non-carbapenemase producer): 0.032 µg/mL
- MIC (strain K. pneumoniae 648236, SHV-2a, non-carbapenemase producer): 0.38 µg/mL
- MIC (strain K. pneumoniae ALE, CTX-M-15 + SHV-1, non-carbapenemase producer): 4 µg/mL
- MIC (strain K. pneumoniae AMS, OXA-48 + TEM-1 + CTX-M-15 + OXA-1): 0.38 µg/mL
- MIC (strain K. pneumoniae BAJ, OXA-48 + TEM-1 + CTX-M-15 + SHV-28): 0.38 µg/mL
- MIC (strain K. pneumoniae BED, CTX-M-15 + TEM-1 + SHV-11, non-carbapenemase producer): 4 µg/mL
- MIC (strain K. pneumoniae BEL, OXA-48): 1 µg/mL
- MIC (strain K. pneumoniae BEN, OXA-48 + TEM-1 + CTX-M-15 + SHV-28): 0.25 µg/mL
- MIC (strain K. pneumoniae BER, SHV-28 + TEM-1, non-carbapenemase producer): 1 µg/mL
- MIC (strain K. pneumoniae ELK, OXA-48 + TEM-1 + CTX-M-15 + SHV-11): 0.38 µg/mL
- MIC (strain K. pneumoniae HOL, OXA-181 + CTX-M-15): 1 µg/mL
- MIC (strain K. pneumoniae MUS, KPC-2 + TEM-1 + SHV-11 + SHV-12): 1.5 µg/mL
- MIC (strain K. pneumoniae OM2, NDM-1 + TEM-1 + CTX-M-3 + SHV-11 + OXA-1): 1.5 µg/mL
- MIC (strain K. pneumoniae OMA419, NDM-1 + OXA-1): 2 µg/mL
- MIC (strain K. pneumoniae OMA, OXA-181 + CTXM-15 + OXA-1): 0.5 µg/mL
- MIC (strain K. pneumoniae ROU, OXA-48 + CTX-M-15): 0.25 µg/mL
- MIC (strain K. pneumoniae SCO, OXA-48): 0.25 µg/mL
- MIC (strain K. pneumoniae SIC, OXA-48 + CTX-M-15 + SHV-28): 0.25 µg/mL
- MIC (strain K. pneumoniae VSG, OXA-48 + TEM-1 + CTX-M-15 + OXA-1): 0.75 µg/mL
